The values below come from patent US8937063B2 (Trustees of Tufts College, priority 2010, dated 2015).

Series [1] can be described thus: Human clinical trial, single oral doses: serum concentration. It is filed as in vivo. To be noted: in vivo, 1500 mg, read-out: Cmax. On the procedure: Five periods of single dose escalation, with 8 subjects per cohort (6 drug: 2 placebo) involve a total 40 subjects. Appropriately blinded matching placebos are provided. Cohort 1 receives 500 mg of ARI-001 formulated as a single oral tablet, plus eleven placebo tablets; Cohort 2, […] of ARI-001, plus ten placebo tablets; Cohort 3, […] of ARI-001, plus eight placebo tablets; Cohort 4, […] of ARI-001, plus four placebo tablets; Corhort 5, […] of ARI-001. Placebo-only subjects take twelve placebo tablets. Each tablet is a compressed, film-coated tablet suitable for oral administration.
Pharmacokinetic samples are collected at 0-45 min pre-dose and at 0.5, 1, 1.5, 2, 4, 6, 8, 12, 24, 30 and 168 hours after dosing. […]
[…] […] Analysis of all samples is performed at a central laboratory.

The test system of series [2] is high fat+fructose (HF/HS) diet hamsters. Nature of the series: 18-day oral dosing lipid study in HF/HS hamsters. To be noted: niacin 1200 mg/kg oral once daily 18 days, mean ± SD. It counts as in vivo, male Golden Syrian hamsters. How it is done:
We examined the effects of diet modulation on the lipid profile of male Syrian Golden hamsters. Hamsters were ordered from Charles River Labs (Wilmington, Mass.), and requested to be 111-120 g in weight (correspondingly 56-61 days old). Hamsters were kept in cages of 4-5 per cage, and maintained on a standard light cycle of 12 hours on/12 hours off. All diets were obtained from Dyets, Inc. (Bethlehem, Pa.). “Normal Diet” was a standard rodent chow, catalog #5001, produced into pellets. Water and this standard chow diet were available to this group of hamsters ad libitum. Food was added to cages as needed, but no less frequently than twice per week. “High Fat Diet” was the same standard rodent chow supplemented with the following: 11.5% corn oil, 11.5% coconut oil, 0.5% cholesterol, and 0.25% deoxycholate. This is also available directly from Dyets, Inc., as catalog #611201. Both diets were ordered in 10 kg batches and stored at 4° C. for durations of the experiments (4-8 weeks), and at −20° C. for longer storage (up to six months). Water and this high fat diet were available to this group of hamsters ad libitum. The “High Fat+Fructose” group was fed the same fat-supplemented chow as the “high fat diet” group (#611201), but water was supplemented with fructose to a final concentration of 10%. Fructose was supplied from Now Foods (catalog #6931) and distributed by Lucky Vitamin (catalog #WB48432). Fructose water was prepared by adding 400 g of fructose to 4 L of water and stirring at room temperature until dissolved. Fructose water was stored at 4° C. until use. When provided to hamsters, fructose water was kept in a water bottle in the hamster cages at room temperature, exactly as standard water was. Fructose water and high fat chow were provided to this group of hamsters ad libitum. All animals remained on their respective diets for 21 days.
To begin this experiment, hamsters were randomly assigned to groups defined by the diet modifications above. After a fixed time, blood was collected from hamsters (N=3-4) to determine the lipid contents of the plasma. Because of limitations in the ability to adequately collect blood from hamsters, all blood samples were obtained via a terminal cardiac puncture preceded by asphyxiation with carbon dioxide. Blood (approximately 2 mL volume) was collected with a 22 G needle into a 5 mL syringe and transferred to a K2EDTA tube. The samples were kept on ice until centrifugation (14,000 rpm for 10 minutes at 4° C.) to separate plasma. Plasma was then aliquoted to tubes for storage at −80° C. until analysis.
Lipid parameters were determined using commercially available kits from Wako USA (Richmond, Va.) according to manufacturer's directions.
Male Golden Syrian hamsters were purchased from Charles River Labs (111-120 g, 56-61 days) and acclimated to a high fat+fructose (herein, referred to as “HF/HS”) diet as described above for two weeks. Hamsters were assigned into cohorts by body weight after two weeks' acclimation to the diet. […] Hamsters were dosed once per day for a total of 18 days. All animals remained on the above-described HF/HS diet throughout the dosing period. Dosing solutions for each cohort were prepared for 7 days at a time, although enough was prepared to last for 8 days. Each solution was stored at room temperature between administrations. Cohorts were defined according to Table 2 below.

The nature of series [3]: Single oral dose pharmacokinetic comparison niacin, ARI-001, 2230C in wild type mice. To be noted: single bolus oral gavage, mouse plasma; for AUC / Cmax / Tmax / half-life: C57BL/6; for half-life: read-out: half-life (t1/2) (converted). It counts as in vivo, C57BL/6 mice. An excerpt: Compound 2230C has the structure

The Cmax is the highest concentration seen after dosing. As usually defined, the AUC is concentration integrated over time. High values mean high exposure, low ones low exposure. One may read the Tmax as the time from dosing to the highest level. With `O=C(O)c1cccnc1` [Niacin, nicotinic acid], the Cmax in series [1] is about 30000 ng/mL. For the same molecule, in series [2], the HDL/TC is recorded as 0.17 ± 0.11. In series [2] (plasma), the “FFA (free fatty acids)” value is 1.82 ± 0.69 mEq/L, the HDL stood at 79 ± 26 mg/dL, the LDL is listed as 170 ± 52 mg/dL and the “TG (triglycerides)” value was 1555 ± 808 mg/dL. Besides, in series [3], the AUC was found to be 11700 µM·h, the maximum concentration (Cmax) came to 4090 µM, the Tmax came out at 30 min and the half-life is 105 min. Moreover, in series [3], the “AUC (% Niacin)” value is given as 100 % Niacin, the “C24 h/Cmax” value stood at 0.02% and the “Cmax (% Niacin)” value is given as 100 % Niacin.
Take `O=C(O)c1ccc(CCN2CCCC2)nc1` [Compound 2230C]: in series [3], the AUC amounted to 686 µM·h, the highest level (Cmax) was 126 µM, the Tmax is 18.6 min and the half-life is 208 min. In addition, in series [3], the “AUC (% Niacin)” value came to 5.8 % Niacin, the “C24 h/Cmax” value is reported as 2.1%, the “Cmax (% Niacin)” value came to 3.0 % Niacin and the Cmax/AUC0-24 is 0.18 h⁻¹.
